Converted amounts (≈) assume the structure as drawn. Like-named read-outs stand apart in the source and are kept apart here. Starred links: 1 amine or outer side, 2 acyl side, 3 side chain; linkers in the order of their positions; H or OH if unused. Non-standard residues stand in square brackets, D forms with d. Residues, ends and D or L forms follow the SMILES beside them. Groups on a side chain read outwards from the residue. *: point of attachment. X1 = CCCCCCCCCCCCCCCC(=O)N[C@@H](CCC(=O)N[C@@H](CCC(=O)N[C@@H](CCC(=O)NCCCOCCOCCOCCCNC(=O)CCC(=O)NCCCOCCOCCOCCCNC(=O)CCC(=O)NCCCOCCOCCOCCCN*)C(=O)O)C(=O)O)C(=O)O; X2 = CCCCCCCCCCCCCCCC(=O)N[C@@H](CCC(=O)N[C@@H](CCC(=O)N[C@@H](CCC(=O)NCCCOCCOCCOCCCNC(=O)CCC(=O)NCCCOCCOCCOCCCN*)C(=O)O)C(=O)O)C(=O)O; Suc = O=C(CCC(=O)[*:2])[*:1]; αMeK = C[C@](N)(CCCCN)C(=O)O; Aib = CC(C)(N)C(=O)O
Columns and labels:
[1] = Solubility testing in buffer; assay type: physicochemical; conditions: target solubility 10.0 mg/ml
[2] = Stability in human plasma; assay type: in vitro ADME; conditions: for Human Plasma stability % remaining: T = 0, 37° C., 5 μM; for remaining at 1 h, 5 μM / remaining at 4 h, 5 μM: human, plasma (sodium or lithium heparin), 37° C.
Description: Prior to the testing of stability in plasma (or blood) of a peptide batch, its purity (HPLC-UV) was determined.
Rat and Human plasma: anti-coagulant sodium or lithium heparin.
100 μM solution of study compound in 50 mM phosphate buffer pH 7.4.
950 μL plasma (or blood) was pre-incubated for 5 min at 37° C. 50 μL of compound stock solution was added. Final compound concentration=5 μM. Vortex and transfer 150 μL plasma (or blood) into an Eppendorf for each time point. The time points […] were carried out in duplicate for each species.
After incubation, 150 μL plasma (or blood) was extracted with 600 μL Acetonitrile containing 1% TFA. Said mixture was then vortexed and centrifuged 10 min at 14600 rpm. 200 μL supernatant was dried under N2. Sample was then reconstituted in 200 μL of H2O/CH3CN 98/2+0.1% FA+50 ng/ml Labetalol and analyzed using the analytical system used in solubility and stability studies.
For determination of the amount of the remaining peptide, the peak areas of the target compound at t0 and each time point […] were compared, resulting in “% remaining peptide”, following the equation: % remaining peptide=[(peak area peptide time)×100]/peak area peptide t0. The stability was expressed as “% remaining peptide”.

[3] = acetate buffer 50 mM pH 4.5, read-out: Solubility Acetate buffer pH 4.5
[4] = phosphate buffer 50 mM pH 7.4, read-out: Solubility phosphate buffer pH 7.4

Row | Structure (SMILES) | solubility [1, 3] [mg/mL] | solubility [1, 4] [mg/mL] | Human Plasma stability % remaining [2] [%] | remaining at 1 h, 5 μM [2] [%] | remaining at 4 h, 5 μM [2] [%]
1 | CCCCCCCCCCCCCCCC(=O)N[C@@H](CCC(=O)N[C@@H](CCC(=O)N[C@@H](CCC(=O)NCCCOCCOCCOCCCNC(=O)CCC(=O)NCCCOCCOCCOCCCNC(=O)CCC(=O)NCCCC[C@H](NC(=O)CNC(=O)[C@H](CCC(=O)O)NC(=O)C(C)(C)NC(=O)C(C)(C)NC(=O)[C@@H](NC(=O)[C@H](CCCCNC(C)=O)NC(=O)[C@H](C)NC(=O)[C@H](CCCNC(=N)N)NC(=O)[C@@H](NC(=O)[C@H](CCCCN)NC(=O)[C@H](CCC(=O)O)NC(=O)[C@H](CCCNC(=N)N)NC(=O)CNC(=O)[C@H](CCC(=O)O)NC(=O)[C@H](CC(C)C)NC(C)=O)C(C)C)[C@@H](C)CC)C(=O)N[C@@H](CO)C(=O)N[C@H](C(=O)N[C@@H](Cc1c[nH]c2ccccc12)C(=O)N[C@@H](CO)C(=O)NC(C)(C)C(=O)N[C@@H](CCCNC(=N)N)C(=O)N[C@@H](CCCCN)C(=O)N[C@@H](CCCCNC(C)=O)C(N)=O)[C@@H](C)O)C(=O)O)C(=O)O)C(=O)O [compound 4] (Ac-LEGREKVRAK(Ac)I[Aib][Aib]EGK([Suc-X2])STWS[Aib]RKK(Ac)-NH2) | 9.63 (≈ 2350 µM) | 7.71 (≈ 1880 µM) | 100 | 100 | 100
2 | CCCCCCCCCCCCCCCC(=O)N[C@@H](CCC(=O)N[C@@H](CCC(=O)N[C@@H](CCC(=O)NCCCOCCOCCOCCCNC(=O)CCC(=O)NCCCOCCOCCOCCCNC(=O)CCC(=O)NCCCOCCOCCOCCCNC(=O)CCC(=O)NCCCC[C@H](NC(=O)CNC(=O)[C@H](CCC(=O)O)NC(=O)C(C)(C)NC(=O)C(C)(C)NC(=O)[C@@H](NC(=O)[C@H](CCCCNC(C)=O)NC(=O)[C@H](C)NC(=O)[C@H](CCCNC(=N)N)NC(=O)[C@@H](NC(=O)[C@H](CCCCN)NC(=O)[C@H](CCC(=O)O)NC(=O)[C@H](CCCNC(=N)N)NC(=O)CNC(=O)[C@H](CCC(=O)O)NC(=O)[C@H](CC(C)C)NC(C)=O)C(C)C)[C@@H](C)CC)C(=O)N[C@@H](CO)C(=O)N[C@H](C(=O)N[C@@H](Cc1ccccc1)C(=O)N[C@@H](CO)C(=O)N[C@@](C)(CCCCN)C(=O)N[C@@H](CCCNC(=N)N)C(=O)N[C@@H](C)C(=O)N[C@@H](CCCCNC(C)=O)C(N)=O)[C@@H](C)O)C(=O)O)C(=O)O)C(=O)O [compound 3] (Ac-LEGREKVRAK(Ac)I[Aib][Aib]EGK([Suc-X1])STFS[αMeK]RAK(Ac)-NH2) | 11.1 (≈ 2550 µM) | 11.5 (≈ 2640 µM) | 99 | 95 | 100

Reference: patent US11725036B2, “Modified lipidated relaxin B chain peptides and their therapeutic use” (Sanofi, priority 2018, dated 2023)
